In assay [1] the target is T1, Peroxisome proliferator-activated receptor gamma (Homo sapiens, UniProt P37231).
T1 sequence (P37231 whole entry): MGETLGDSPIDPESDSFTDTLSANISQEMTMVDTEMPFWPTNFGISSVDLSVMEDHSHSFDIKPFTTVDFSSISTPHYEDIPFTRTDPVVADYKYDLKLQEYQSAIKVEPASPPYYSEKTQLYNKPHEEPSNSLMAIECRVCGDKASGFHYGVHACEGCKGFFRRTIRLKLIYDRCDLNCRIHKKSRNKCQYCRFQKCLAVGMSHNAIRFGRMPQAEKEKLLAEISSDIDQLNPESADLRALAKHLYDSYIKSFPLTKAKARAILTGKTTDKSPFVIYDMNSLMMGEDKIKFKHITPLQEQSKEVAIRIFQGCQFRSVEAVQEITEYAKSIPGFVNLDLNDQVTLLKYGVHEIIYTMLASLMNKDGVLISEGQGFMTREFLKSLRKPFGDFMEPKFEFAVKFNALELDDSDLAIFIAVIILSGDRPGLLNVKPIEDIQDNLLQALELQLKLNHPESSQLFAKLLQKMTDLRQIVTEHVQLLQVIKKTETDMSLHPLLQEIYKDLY
Nature of the assay: (§1) Binding affinity to PPARgamma (unknown origin) by TR-FRET assay. A general note: In TR-FRET formats the signal depends on donor and acceptor labels being close together.

The nature of assay [2]: cells. The following applies: Homo sapiens, 120 h.
Description: Induction of adipogenesis in human bone marrow-derived mesenchymal stem cells assessed as increase in adiponectin production measured on day 5 in presence of IDX by ELISA
Assay [3] is filed under the species Homo sapiens. Briefly: Induction of adipogenesis in human bone marrow-derived mesenchymal stem cells assessed as increase in adiponectin production at 30 uM measured on day 5 in presence of IDX by ELISA. The assay is classed as functional. For orientation: An ELISA detects its analyte on a solid surface through an enzyme-linked reagent.
Assay [4] in a line: Induction of adipogenesis in human bone marrow-derived mesenchymal stem cells assessed as increase in adiponectin production at 30 uM measured on day 5 in presence of IDX by ELISA relative to control. The assay is classed as functional.
Assay [5] is described as follows: Induction of adipogenesis in human bone marrow-derived mesenchymal stem cells assessed as increase in adiponectin production at 60 uM measured on day 5 in presence of IDX by ELISA relative to pioglitazone. It counts as functional. The following applies: 120 h.
The target in assay [6] is T2, Peroxisome proliferator-activated receptor gamma (Homo sapiens) (UniProt P37231).
T2 sequence (whole entry): T1 sequence (P37231 whole entry)
Briefly: Inhibition of labeled ligand binding to PPARgamma (unknown origin) at 60 uM by TR-FRET assay relative to control.

For assay [7], the target named is T2, Peroxisome proliferator-activated receptor gamma (Homo sapiens). Nature of the assay: Inhibition of labeled ligand binding to PPARgamma (unknown origin) at 30 uM by TR-FRET assay relative to control.
For assay [8] the target is unchanged. Described as §1.
Assay [9] deals with T3, Glucocorticoid receptor (Homo sapiens) (UniProt P04150).
T3 sequence (whole entry): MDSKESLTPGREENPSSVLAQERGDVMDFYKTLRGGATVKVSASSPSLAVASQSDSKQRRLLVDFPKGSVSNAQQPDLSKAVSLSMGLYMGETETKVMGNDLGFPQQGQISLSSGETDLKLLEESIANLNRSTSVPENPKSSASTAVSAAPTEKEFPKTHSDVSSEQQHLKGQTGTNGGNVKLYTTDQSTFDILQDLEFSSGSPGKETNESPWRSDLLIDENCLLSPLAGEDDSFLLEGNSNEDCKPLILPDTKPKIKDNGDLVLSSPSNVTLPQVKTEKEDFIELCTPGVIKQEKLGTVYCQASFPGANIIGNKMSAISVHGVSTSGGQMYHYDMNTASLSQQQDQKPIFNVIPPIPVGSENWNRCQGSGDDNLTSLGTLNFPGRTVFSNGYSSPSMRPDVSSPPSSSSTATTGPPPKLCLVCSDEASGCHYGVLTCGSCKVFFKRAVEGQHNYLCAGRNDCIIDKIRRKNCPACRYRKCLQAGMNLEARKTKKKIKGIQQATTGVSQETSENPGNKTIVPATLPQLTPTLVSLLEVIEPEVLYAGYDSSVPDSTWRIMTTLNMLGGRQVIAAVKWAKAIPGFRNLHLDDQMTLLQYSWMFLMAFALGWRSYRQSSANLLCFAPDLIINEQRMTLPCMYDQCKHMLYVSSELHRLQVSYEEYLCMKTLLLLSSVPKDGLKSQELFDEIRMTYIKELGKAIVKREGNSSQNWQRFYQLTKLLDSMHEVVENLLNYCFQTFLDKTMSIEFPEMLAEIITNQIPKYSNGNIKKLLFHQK
Nature of the assay: Binding affinity to GR (unknown origin) at 30 uM by TR-FRET assay.

The target in assay [10] is T4, Peroxisome proliferator-activated receptor alpha (Homo sapiens) (UniProt Q07869).
T4 sequence (whole entry): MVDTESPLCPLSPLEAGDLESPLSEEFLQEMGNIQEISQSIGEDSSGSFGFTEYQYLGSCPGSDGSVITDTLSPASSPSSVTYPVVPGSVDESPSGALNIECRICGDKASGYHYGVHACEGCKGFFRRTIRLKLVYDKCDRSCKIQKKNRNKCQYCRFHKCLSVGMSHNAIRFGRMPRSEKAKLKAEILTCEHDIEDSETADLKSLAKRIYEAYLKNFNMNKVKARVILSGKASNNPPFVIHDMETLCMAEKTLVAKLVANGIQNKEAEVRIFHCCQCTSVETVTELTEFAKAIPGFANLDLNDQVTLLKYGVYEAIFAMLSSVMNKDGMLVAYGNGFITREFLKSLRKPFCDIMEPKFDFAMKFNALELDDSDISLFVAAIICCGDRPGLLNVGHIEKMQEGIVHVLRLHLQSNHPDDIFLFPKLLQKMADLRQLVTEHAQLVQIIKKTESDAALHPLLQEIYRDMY
Nature of the assay: Binding affinity to PPARalpha (unknown origin) at 30 uM by TR-FRET assay.

Assay [11] concerns the target T5, Peroxisome proliferator-activated receptor delta (Homo sapiens) (UniProt Q03181).
T5 sequence (whole entry): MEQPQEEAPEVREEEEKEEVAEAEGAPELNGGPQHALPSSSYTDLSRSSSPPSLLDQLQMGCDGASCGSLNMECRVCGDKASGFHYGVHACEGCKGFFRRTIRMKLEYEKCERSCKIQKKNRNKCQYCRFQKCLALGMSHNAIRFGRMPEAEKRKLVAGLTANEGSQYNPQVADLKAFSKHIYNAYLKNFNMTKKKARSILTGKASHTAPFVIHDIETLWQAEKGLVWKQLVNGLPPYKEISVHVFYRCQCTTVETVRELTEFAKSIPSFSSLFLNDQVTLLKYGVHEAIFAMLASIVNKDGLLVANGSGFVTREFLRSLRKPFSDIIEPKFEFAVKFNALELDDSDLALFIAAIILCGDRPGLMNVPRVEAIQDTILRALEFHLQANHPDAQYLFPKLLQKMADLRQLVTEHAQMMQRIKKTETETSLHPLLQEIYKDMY
Briefly: Binding affinity to PPARdelta (unknown origin) at 30 uM by TR-FRET assay.

Assay [12] has as its target T6, Oxysterols receptor LXR-alpha (Homo sapiens) (UniProt Q13133).
T6 sequence (whole entry): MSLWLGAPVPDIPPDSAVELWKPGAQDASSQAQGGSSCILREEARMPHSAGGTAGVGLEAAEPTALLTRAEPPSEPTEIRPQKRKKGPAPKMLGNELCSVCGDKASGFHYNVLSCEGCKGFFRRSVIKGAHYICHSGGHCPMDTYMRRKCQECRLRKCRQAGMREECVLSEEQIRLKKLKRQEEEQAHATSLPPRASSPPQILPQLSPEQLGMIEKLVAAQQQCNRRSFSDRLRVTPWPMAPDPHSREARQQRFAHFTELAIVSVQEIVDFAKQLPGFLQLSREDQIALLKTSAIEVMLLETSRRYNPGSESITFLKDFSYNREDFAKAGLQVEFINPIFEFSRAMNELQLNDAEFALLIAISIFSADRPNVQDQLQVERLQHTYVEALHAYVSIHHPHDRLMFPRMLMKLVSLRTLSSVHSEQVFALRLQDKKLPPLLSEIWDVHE
Nature of the assay: Binding affinity to LXRalpha (unknown origin) at 30 uM by TR-FRET assay.

SMILES strings stand for the structures. The source made the active and inactive calls. The calls are words filed in the database; no cut-off is given here.

As a reminder, the Ki is the dissociation constant of the complex between target and ligand, obtained from inhibition or displacement. Read a high Ki as lower affinity. What is called EC50 is the concentration that produces a half-maximal response. Consider `COc1ccc(Cl)cc1C(=O)NCCc1ccc(S(=O)(=O)NC(=O)NC2CCCCC2)cc1` [GLYBURIDE], for which the Ki in assay [1] was 0.66 µM. In assay [2], this molecule registered an EC50 of 2.95 µM.
With `O=c1cc(CCc2ccccc2O)oc2ccccc12`, the outcome in assay [3] was inactive.
Turning to `O=c1cc(CCc2ccccc2)oc2c(Cl)cc(O)cc12`, in [3], the result was Active.
The Emax is the greatest response seen or fitted, relative to the assay's reference. Usually inhibition stands for how much of the control response was suppressed. Read a low inhibition as little suppression. For `O=c1cc(CCc2ccccc2)oc2ccc(O)c(O)c12`, the outcome in assay [3] was Active. Also, in [4], the “fold change (FC)” value is reported as 1.97. In addition, the Emax at 60 µM in [5] was determined as 48%. For the same molecule, the inhibition in assay [6] turned out to be 41.1%. In addition, the EC50 in assay [2] was greater than 60 µM.
Turning to `O=C1C=C(CCc2ccccc2)OC2C1[C@@H]1O[C@@H]1[C@H](O)[C@H]2O` (relative stereo), in [3], the outcome was Active.
In the case of `O=c1cc(CCc2ccccc2)oc2cccc(O)c12`, the outcome in [3] was Active.
Regarding `COc1ccc2oc(CCc3ccccc3)cc(=O)c2c1O`, the outcome in assay [3] was Active.
With `O=c1cc(CCc2ccccc2)oc2c(O)cccc12`, the outcome in [3] was inactive.
Consider `COc1ccc2c(=O)cc(CCc3ccccc3)oc2c1`, for which, in assay [3], the result was Active. In [7], this molecule showed an inhibition of 50.3%. In addition, the Activity result in assay [8] was “Dose-dependent effect”. This molecule also returned an inhibition constant Ki in assay [1] of 14.9 µM. The outcome in assay [9], in assay [10], in assay [11] and in assay [12] was inactive. Also, in assay [2], the EC50 was found to be 20.3 µM.

The record behind these values is ChEMBL document CHEMBL4330147, “Adiponectin-Secretion-Promoting Phenylethylchromones from the Agarwood of Aquilaria malaccensis” (J Nat Prod, 2019).
